System: preferentially upregulated genes in LV, SP, LN
Experiment: Z-score-based differential gene expression analysis (adjuvant group- or adjuvant-associated genes, 40 module mapping, TargetMine annotation)
Type: in vivo, C57BL/6 mice
Design: key to z sum, 1458589_at ---: sum of the per-gene fold-change z-scores of the triplicate samples
Details: ID
How it was run: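 Gene groups for each organ were built from combined z-score cutoffs across adjuvants, ranging from z>1 to z>3. Scores came from fold changes standardized per gene over the whole organ data set, with the three replicate z-scores added per adjuvant; sums above 3 marked preferential expression.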

**Q.** Which “z sum, 1428027_at LOC100653389” value (LN, Modules 26) does the source give for `Nc1nc2c(ncn2[C@@H]2O[C@@H]3COP(=O)(O)O[C@H]4[C@@H](O)[C@H](n5cnc6c(N)ncnc65)O[C@@H]4COP(=O)(O)O[C@@H]2[C@@H]3O)c(=O)[nH]1` [cGAMP, Cyclic [G(2′,5′)pA(3′,5′)p]] here?
**A.** The value was −1.72.

**Q.** What about the “z sum, 1419721_at Niacr1” value (LN, Modules 27) of the same molecule?
**A.** Its value is −2.05.

**Q.** What about the “z sum, 1418424_at Tnfaip6” value (LN, Modules 29) of the same molecule?
**A.** Its value is −2.05.

**Q.** What about the “z sum, 1419534_at Olr1” value (LN, Modules 29) of the same molecule?
**A.** Its value is −2.35.

**Q.** What about the “z sum, 1421457_a_at Samsn1” value (LN, Modules 29) of the same molecule?
**A.** Its value is −1.88.

**Q.** What about the “z sum, 1422305_at Ifnb1” value (LN, Modules 29) of the same molecule?
**A.** Its value is −1.97.

**Q.** And the “z sum, 1423028_at Ifna2” value (LN, Modules 29)?
**A.** Its value is −1.92.

**Q.** And the “z sum, 1425837_a_at Ccrn4l” value (LN, Modules 29)?
**A.** The value was −2.11.

**Q.** And the “z sum, 1436387_at C330006P03Rik///Homer1” value (LN, Modules 29)?
**A.** The value was −1.73.

**Q.** What about the “z sum, 1439349_at Sbno2” value (LN, Modules 29) of the same molecule?
**A.** The value was −2.1.

**Q.** What about the “z sum, 1444010_at Eif4e” value (LN, Modules 29) of the same molecule?
**A.** Its value is −1.99.

**Q.** What about the “z sum, 1448325_at Ppp1r15a” value (LN, Modules 29) of the same molecule?
**A.** Its value is −2.32.

**Q.** What about the “z sum, 1449311_at Bach1” value (LN, Modules 29) of the same molecule?
**A.** The value was −1.95.

**Q.** What about the “z sum, 1450297_at Il6” value (LN, Modules 29) of the same molecule?
**A.** Its value is −2.07.

**Q.** And the “z sum, 1455197_at Rnd1” value (LN, Modules 29)?
**A.** The value was −2.12.

**Q.** What about the “z sum, 1455899_x_at Socs3” value (LN, Modules 29) of the same molecule?
**A.** Its value is −2.14.

**Q.** What about the “z sum, 1417252_at Ptgs2” value (LN, Modules 34) of the same molecule?
**A.** The value was −2.41.

**Q.** And the “z sum, 1417263_at Ptgs2” value (LN, Modules 34)?
**A.** Its value is −2.18.

**Q.** What about the “z sum, 1419132_at Tfr2” value (LN, Modules 34) of the same molecule?
**A.** The value was −1.86.

**Q.** And the “z sum, 1421473_at Il1a” value (LN, Modules 34)?
**A.** Its value is −2.25.

**Q.** And the “z sum, 1439981_at Tespa1” value (LN, Modules 35)?
**A.** Its value is −2.15.

**Q.** And the “z sum, 1441843_s_at 5230400M03Rik” value (LN, Modules 35)?
**A.** The value was −1.71.

**Q.** What about the “z sum, 1442556_at ---” value (LN, Modules 35) of the same molecule?
**A.** Its value is −1.95.

**Q.** And the “z sum, 1443414_at C78513” value (LN, Modules 35)?
**A.** Its value is −1.91.

**Q.** What about the “z sum, 1444598_at ---” value (LN, Modules 35) of the same molecule?
**A.** Its value is −1.93.

**Q.** What about the “z sum, 1445534_at ---” value (LN, Modules 35) of the same molecule?
**A.** The value was −1.93.

**Q.** And the “z sum, 1446245_at ---” value (LN, Modules 35)?
**A.** The value was −1.58.

**Q.** And the “z sum, 1457944_at ---” value (LN, Modules 35)?
**A.** Its value is −1.78.

**Q.** What about the “z sum, 1458376_at B930025B16Rik” value (LN, Modules 35) of the same molecule?
**A.** The value was −1.85.

**Q.** And the “z sum, 1459144_at ---” value (LN, Modules 35)?
**A.** Its value is −1.91.

**Q.** What about the “z sum, 1425687_at Cflar” value (LN, Modules 36) of the same molecule?
**A.** The value was −2.21.

**Q.** And the “z sum, 1427736_a_at Ccrl2” value (LN, Modules 36)?
**A.** Its value is −1.74.

**Q.** And the “z sum, 1449169_at Has2” value (LN, Modules 36)?
**A.** Its value is −1.67.

**Q.** What about the “z sum, 1453636_at Pcgf5” value (LN, Modules 36) of the same molecule?
**A.** Its value is −1.86.

**Q.** What about the “z sum, 1457888_at ---” value (LN, Modules 36) of the same molecule?
**A.** Its value is −1.91.

**Q.** And the “z sum, 1419508_at Ripk1” value (LN, Modules 37)?
**A.** The value was −1.9.

**Q.** And the “z sum, 1421578_at Ccl4” value (LN, Modules 37)?
**A.** Its value is −2.14.

**Q.** What about the “z sum, 1421679_a_at Cdkn1a” value (LN, Modules 37) of the same molecule?
**A.** The value was −1.99.

**Q.** And the “z sum, 1424638_at Cdkn1a” value (LN, Modules 37)?
**A.** The value was −2.22.

**Q.** And the “z sum, 1433508_at Klf6” value (LN, Modules 37)?
**A.** Its value is −2.41.

**Q.** What about the “z sum, 1434350_at Csrnp1” value (LN, Modules 37) of the same molecule?
**A.** The value was −1.97.

**Q.** What about the “z sum, 1439680_at Tnfsf10” value (LN, Modules 37) of the same molecule?
**A.** Its value is −1.65.

**Q.** What about the “z sum, 1448724_at Cish” value (LN, Modules 37) of the same molecule?
**A.** Its value is −2.38.

**Q.** What about the “z sum, 1451340_at Arid5a” value (LN, Modules 37) of the same molecule?
**A.** The value was −1.67.

**Q.** What about the “z sum, 1453851_a_at Gadd45g” value (LN, Modules 37) of the same molecule?
**A.** Its value is −1.96.

**Q.** What about the “z sum, 1457404_at Nfkbiz” value (LN, Modules 37) of the same molecule?
**A.** Its value is −1.92.

**Q.** And the “z sum, 1458589_at ---” value (LN, Modules 37)?
**A.** The value was −2.36.

**Q.** What about the “z sum, 1422054_a_at 5kil” value (LN, Modules 40) of the same molecule?
**A.** Its value is −2.23.

**Q.** What about the “z sum, 1428735_at Cd69” value (LN, Modules 40) of the same molecule?
**A.** The value was −1.52.

**Q.** What about the “Adar 1425405_a_at (Group G1, Modules 20)” value (LV, sample x1) of the same molecule?
**A.** Its value is 2.95.

**Q.** What about the “Adar 1434268_at (Group G1, Modules 20)” value (LV, sample x1) of the same molecule?
**A.** Its value is 2.22.

**Q.** What about the “Ddx58 1436562_at (Group G1, Modules 20)” value (LV, sample x1) of the same molecule?
**A.** Its value is 2.04.

**Q.** What about the “Ddx58 1456890_at (Group G1, Modules 20)” value (LV, sample x1) of the same molecule?
**A.** Its value is 2.26.

**Q.** What about the “Eif2ak2 1422005_at (Group G1, Modules 20)” value (LV, sample x1) of the same molecule?
**A.** Its value is 3.11.

**Q.** And the “G3bp2 1421323_a_at (Group G1, Modules 20)” value (LV, sample x1)?
**A.** Its value is 3.19.

**Q.** And the “Gm9706///Isg15 1431591_s_at (Group G1, Modules 20)” value (LV, sample x1)?
**A.** The value was 2.13.

**Q.** What about the “H2-T10///H2-T22///H2-T9 1449875_s_at (Group G1, Modules 20)” value (LV, sample x1) of the same molecule?
**A.** Its value is 2.29.

**Q.** What about the “Ifih1 1426276_at (Group G1, Modules 20)” value (LV, sample x1) of the same molecule?
**A.** The value was 1.73.

**Q.** What about the “Ifit1 1450783_at (Group G1, Modules 20)” value (LV, sample x1) of the same molecule?
**A.** The value was 2.75.

**Q.** And the “Ifit3 1449025_at (Group G1, Modules 20)” value (LV, sample x1)?
**A.** The value was 2.13.

**Q.** What about the “Irf7 1417244_a_at (Group G1, Modules 20)” value (LV, sample x1) of the same molecule?
**A.** Its value is 1.6.

**Q.** And the “Irgm1 1418825_at (Group G1, Modules 20)” value (LV, sample x1)?
**A.** Its value is 2.25.

**Q.** And the “Mndal 1426906_at (Group G1, Modules 20)” value (LV, sample x1)?
**A.** The value was 2.08.

**Q.** And the “Pml 1448757_at (Group G1, Modules 20)” value (LV, sample x1)?
**A.** The value was 2.13.

**Q.** What about the “Pml 1456103_at (Group G1, Modules 20)” value (LV, sample x1) of the same molecule?
**A.** The value was 1.62.

**Q.** And the “Rnf213 1455500_at (Group G1, Modules 20)” value (LV, sample x1)?
**A.** The value was 2.58.

**Q.** And the “Rsad2 1436058_at (Group G1, Modules 20)” value (LV, sample x1)?
**A.** The value was 2.08.

**Q.** What about the “Shisa5 1423986_a_at (Group G1, Modules 20)” value (LV, sample x1) of the same molecule?
**A.** Its value is 1.7.

**Q.** And the “Shisa5 1437503_a_at (Group G1, Modules 20)” value (LV, sample x1)?
**A.** The value was 1.57.

From patent US20230021483A1, “[…] […] METHOD AND CLASSIFICATION OF PHARMACEUTICAL COMPONENTS BY USING TRANSCRIPTOMES” (National Institutes of Biomedical Innovation, Health and …, priority 2016, published 2023)
